# Laboratory results taken from patent US11932633B2, “KRas G12C inhibitors” (Mirati Therapeutics, Inc., priority 2018, dated 2024).
# Counter-ions that a name gives are not always drawn.
# Legend:
# KRas G12C [1] = target: T1, KRas G12C (Homo sapiens, UniProt P01116, C118S/C51S/C80L/G12C); test: KRas G12C Modification Assay (LCMS detection of covalent adduct); assay type: binding; conditions: 5 μM concentration for 3 hours
# T1 construct: GDP-loaded K-Ras (1-169) G12C, C51S, C80L, C118S
# Description: This Example illustrates that exemplary compounds of the present invention covalently bind to KRas G12C using a LCMS assay to detect a covalent adduct of the exemplary compound and KRAS G12C.
# The protein concentration of GDP-loaded K-Ras (1-169) G12C, C51S, C80L, C118S and GTP-loaded K-Ras (1-169) G12C, C51S, C80L, C118S, Q61H was adjusted to 2 μM in K-Ras Assay Buffer (25 mM HEPES, 150 mM NaCl, 5 mM MgCl2, and 10 mM Octyl β-glucopyranoside at pH 7.5). A 10 μL aliquot of each protein solution was transferred to a 384 well microtiter plate. Initial compound stocks were generated at fifty times their desired final assay concentration in DMSO.
# Exemplary compounds of formula (I) were diluted 25-fold into K-Ras Assay Buffer to a final of two times their final concentration. A 10 μL aliquot of each diluted compound solution was added to each of the protein solutions in the microtiter plate to initiate reaction. Typical final compound concentrations were 3.0, 5.0 and 25.0 μM. At each time point, the reactions were quenched with 20 μL of a 25 mM acetic acid solution. Usual assay endpoints were 15, 180 and 1440 minutes. Once all reactions were quenched, the plates were heat sealed and the samples were injected into a LC/MS system for data acquisition.
# Data collection took place on an Agilent 6520 Q-TOF Accurate Mass Spectrometer. Samples were injected in their liquid phase onto a C-3 reverse phase column to remove assay buffer and prepare the samples for mass spectrometer. The proteins were eluted from the column using an acetonitrile gradient and fed directly into the mass analyzer. Initial raw data analysis took place in Agilent MassHunter software immediately post data acquisition.
# Raw data analysis of the intact protein was exclusively a deconvolution of the multiple charge states of each protein in solution using a maximum entropy deconvolution provided in Mass Hunter. To minimize complexity, only the data over limited mass ranges were considered for analysis, with a minimum of one Dalton mass step intervals. The heights of all masses identified during raw data analysis were exported to be further analyzed in Spotfire® data analysis software.
# Final data analysis was a multistep process in the Spotfire® data analysis software package. Briefly, each protein mass was calculated as a percent of the total signal of that sample, that percentage was normalized to the percentage of signal of the protein in the absence of reactive compounds. Those normalized signals were reported as normalized percent of control (POC). […] Key: N.D. is not determined.
# KRas G12C [2] = target: T2, KRas G12C (Homo sapiens, UniProt P01116, G12C); test: Cellular inhibition of KRas G12C measured by Phospho-ERK in NCI-11358 cells; assay type: cell-based; conditions: NCI-11358 cells (ATCC CRL-5807), 3 hours; read-out: Inhibition (IC50, pERK (Thr202/Tyr204) signal normalized with GAPDH)
# T2 construct: NCI-11358 cells (ATCC CRL-5807) express KRas G12C; host or cells: NCI-H358
# Description: The cellular inhibition of KRAs G12C by exemplary compounds of the present invention was determined by measuring the amount of a downstream marker of KRas activity, phosphorylated ERK (“Phospho-ERK”).
# NCI-11358 cells (ATCC CRL-5807) express KRas G12C and were grown in RPMI medium supplemented with 10% fetal bovine serum, penicillin/streptomycin and 10 mM HEPES. Cells were plated in poly-D-Lysine coated 96-well plates at a concentration of 50,000 cells/well and allowed to attach for 8-12 hours. Diluted compounds were then added at a final concentration of 0.5% DMSO. After 3 hours, the medium was removed, 150 μL of 4% formaldehyde was added and the plates were incubated for 20 minutes. The plates were washed with PBS, and permeabilized using 150 μL of ice cold 100% methanol for 10 minutes. Non-specific antibody binding to the plates was blocked using 100 μL Licor Blocking Buffer (Li-Cor Biotechnology, Lincoln NE) for 1 hour at room temperature. Positive control samples and samples lacking cells were parallel processed with test samples as standards.
# The amount Phospho-ERK was determined using an antibody specific for the phosphorylated form of ERK and compared to the amount of GAPDH. Primary antibodies used for detection were added as follows: Phospho-ERK (Cell Signaling cs9101) diluted 1:500 and GAPDH (Millipore MAB374) diluted 1:5000 in Licor block+0.05% Tween 20. The plates were incubated for 2 hours at room temperature. The plates were washed with PBS+0.05% Tween 20.
# Secondary antibodies used to visualize primary antibodies were added as follows: Anti-rabbit-680 diluted 1:1000 and Anti-mouse-800 diluted 1:1000 in Licor Block+0.05% Tween 20 and incubated for 1 hour at room temperature. The plates were washed with PBS+0.05% Tween 20. A 100 μL aliquot of PBS was added to each well and the plates were read on a LICOR AERIUS plate reader.
# The pERK (Thr202/Tyr204) signal was normalized with the GAPDH signal and percent of DMSO control values were calculated. IC50 values were generated using a 4 parameter fit of the dose response curve. Key: “A”: ≤1 μM, “B”>1 μM and N.D.=not determined.
"POC (normalized percent of control, covalent modification of KRas G12C) (KRas G12C [1])",IC50 (KRas G12C [2]) [nM],"POC (normalized percent of control, covalent modification of KRas G12C) (KRas G12C [1]; 5 µM)",Structure (SMILES)
91% of control,≤ 1000,–,"C=CC(=O)N1CC(CN2C(=O)[C@@H](CCN(C)C)Oc3cc(-c4cc(O)cc5ccccc45)c(Cl)cc32)C1 [Example 18, (R)-4-((1-acryloylazetidin-3-yl)methyl)-6-chloro-2-(2-(dimethylamino)ethyl)-7-(3-hydroxynaphthalen-1-yl)-2H-benzo[b][1,4]oxazin-3(4H)-one]"
32% of control,> 1000,–,"C=CC(=O)N1CC(CN2C(=O)[C@H](CCN(C)C)Oc3cc(-c4cccc5ccccc45)c(Cl)cc32)C1 [Example 33, (S)-4-((1-acryloylazetidin-3-yl)methyl)-6-chloro-2-(2-(dimethylamino)ethyl)-7-(naphthalen-1-yl)-2H-benzo[b][1,4]oxazin-3(4H)-one]"
85% of control,> 1000,–,"C=CC(=O)N1CC(C)(CN2C(=O)COc3cc(-c4cc(O)cc5ccccc45)c(Cl)cc32)C1 [Example 17, 4-((1-acryloyl-3-methylazetidin-3-yl)methyl)-6-chloro-7-(3-hydroxynaphthalen-1-yl)-2H-benzo[b][1,4]oxazin-3(4H)-one]"
–,> 1000,96% of control,"C=CC(=O)N1CC(CN2C(=O)COc3cc(-c4c(C)ccc5[nH]ncc45)c(Cl)cc32)C1 (single isomer, unassigned) [Example 11]"
95% of control,≤ 1000,–,"C=CC(=O)N1CC(CN2C(=O)C(CN3CCC(N(C)C)CC3)Oc3cc(-c4cc(O)cc5ccccc45)c(Cl)cc32)C1 (stereo not shown) [Example 5, 4-((1-acryloylazetidin-3-yl)methyl)-6-chloro-2-((4-(dimethylamino)piperidin-1-yl)methyl)-7-(3-hydroxynaphthalen-1-yl)-2H-benzo[b][1,4]oxazin-3(4H)-one]"
94% of control,> 1000,–,"C=CC(=O)N1CC(CN2C(=O)C(CC(C)C)Oc3cc(-c4cc(O)cc5ccccc45)c(Cl)cc32)C1 (stereo not shown) [Example 2, 4-((1-acryloylazetidin-3-yl)methyl)-6-chloro-7-(3-hydroxynaphthalen-1-yl)-2-isobutyl-2H-benzo[b][1,4]oxazin-3(4H)-one]"
99% of control,≤ 1000,–,"C=CC(=O)N1CC(CN2C(=O)C(CC3CCN(C)CC3)Oc3cc(-c4cc(O)cc5ccccc45)c(Cl)cc32)C1 (stereo not shown) [Example 20, 4-((1-acryloylazetidin-3-yl)methyl)-6-chloro-7-(3-hydroxynaphthalen-1-yl)-2-((1-methylpiperidin-4-yl)methyl)-2H-benzo[b][1,4]oxazin-3(4H)-one]"
97% of control,> 1000,–,"C=CC(=O)N1CC(CN2C(=O)COc3cc(-c4c(C)ccc5[nH]cnc45)c(Cl)cc32)C1 [Example 15, 4-((1-acryloylazetidin-3-yl)methyl)-6-chloro-7-(5-methyl-1H-benzo[d]imidazol-4-yl)-2H-benzo[b][1,4]oxazin-3(4H)-one trifluoroacetate salt]"
34% of control,> 1000,–,"C=CC(=O)N1CC(C(C)N2C(=O)COc3cc(-c4cc(O)cc5ccccc45)c(Cl)cc32)C1 (stereo not shown) [Example 23, 4-(1-(1-acryloylazetidin-3-yl)ethyl)-6-chloro-7-(3-hydroxynaphthalen-1-yl)-2H-benzo[b][1,4]oxazin-3(4H)-one]"
72% of control,> 1000,–,"C=CC(=O)N1CC(CN2C(=O)COc3cc(-c4[nH]nc(C)c4C)c(Cl)cc32)C1 [Example 38, 6-chloro-7-(3,4-dimethyl-1H-pyrazol-5-yl)-4-[(1-prop-2-enoylazetidin-3-yl)methyl]-1,4-benzoxazin-3-one]"
86% of control,> 1000,–,"C=CC(=O)N1CC(CN2C(=O)COc3c2ccc(-c2cc(O)cc4ccccc24)c3F)C1 [Example 6, 4-((1-acryloylazetidin-3-yl)methyl)-8-fluoro-7-(3-hydroxynaphthalen-1-yl)-2H-benzo[b][1,4]oxazin-3(4H)-one]"
97% of control,≤ 1000,–,"C=CC(=O)N1CC(CN2C(=O)C(CCCN3CCCC3)Oc3cc(-c4cc(O)cc5ccccc45)c(Cl)cc32)C1 (stereo not shown) [Example 22, 4-((1-acryloylazetidin-3-yl)methyl)-6-chloro-7-(3-hydroxynaphthalen-1-yl)-2-(3-(pyrrolidin-1-yl)propyl)-2H-benzo[b][1,4]oxazin-3(4H)-one 2,2,2-trifluoroacetate]"
91% of control,≤ 1000,–,"C=CC(=O)N1CC(CN2C(=O)C(C3CCN(C)CC3)Oc3cc(-c4cc(O)cc5ccccc45)c(Cl)cc32)C1 (stereo not shown) [Example 3, 4-((1-acryloylazetidin-3-yl)methyl)-6-chloro-7-(3-hydroxynaphthalen-1-yl)-2-(1-methylpiperidin-4-yl)-2H-benzo[b][1,4]oxazin-3(4H)-one]"
96% of control,> 1000,–,"C=CC(=O)N1CC(CN2C(=O)COc3cc(-c4cc(O)ccc4OC(F)(F)F)c(Cl)cc32)C1 [Example 7, 4-((1-acryloylazetidin-3-yl)methyl)-6-chloro-7-(5-hydroxy-2-(trifluoromethoxy)phenyl)-2H-benzo[b][1,4]oxazin-3(4H)-one]"
102% of control,> 1000,–,"C=CC(=O)N1CC(CN2C(=O)CSc3cc(-c4cc(O)cc5ccccc45)ccc32)C1 [Example 14, 4-((1-acryloylazetidin-3-yl)methyl)-7-(3-hydroxynaphthalen-1-yl)-2H-benzo[b][1,4]thiazin-3(4H)-one]"
81% of control,> 1000,–,"C=CC(=O)N1CC(CN2C(=O)COc3cc(-c4cc(O)cc5ccccc45)c(C#N)cc32)C1 [Example 32, 4-((1-acryloylazetidin-3-yl)methyl)-7-(3-hydroxynaphthalen-1-yl)-3-oxo-3,4-dihydro-2H-benzo[b][1,4]oxazine-6-carbonitrile]"
86% of control,> 1000,–,"C=CC(=O)N1CC(CN2C(=O)C(CN3CCCC3)Oc3cc(-c4cccc5ccccc45)c(Cl)cc32)C1 (stereo not shown) [Example 24, 4-((1-acryloylazetidin-3-yl)methyl)-6-chloro-7-(naphthalen-1-yl)-2-(pyrrolidin-1-ylmethyl)-2H-benzo[b][1,4]oxazin-3(4H)-one 2,2,2-trifluoroacetate]"
